Experimental data published in US20250387385A1, “TREATMENT FOR GLOMERULAR DISEASES” (ZYDUS Lifesciences Limited, priority 2022, published 2025).

Columns and labels:
HIF = settings: animal model of anemia; reference 10; cited from earlier work
db/db mice = assay: Diabetes induced renal dysfunction in db/db mice; format: in vivo; settings: one kidney removed, 15 mg/kg for eight weeks; for Urine microalbumin (reduction): reduction against diabetic mice
Protocol: For inducing diabetes-induced renal dysfunction, one kidney was removed from male db/db mice and they were treated with compound of formula (Ia) and combination for 8 weeks. At the end of treatment, renal dysfunction was estimated. Histological change in renal disease was also accessed with biochemical changes in serum and urine. Male db/db mice were randomized and were treated with compound of formula (Ia) (15 mg/kg) for eight weeks. At the end of treatment serum creatinine, serum urea and urine microalbumin was measured.

hemoglobin = settings: clinical trials; reference 11; cited from earlier work
BSA treated mice = assay: Cationic bovine serum albumin (cBSA) induced nephritis in male C57 mice; format: in vivo; settings: reduction against BSA treated mice, 24 h urine on 11th day, oral, 10 days, formula (Ia) 15 mg/kg, Iptacopan 20 mg/kg BID
Protocol: Male C57 mice were treated with bovine serum albumin (BSA) at 2, 4, 6, 8 and 10 mg/kg on day 1, 2, 3, 4, and 5 days by intraperitoneal route, respectively. The BSA at 10 mg/kg was treated for next 5 days. On the same day, mice were treated with either vehicle/compound of formula (Ia) (15 mg/kg) and combination of compound of formula (Ia) (15 mg/kg) and Iptacopan (20 mg/kg, BID) by oral route and continued for 10 days. On 11th day mice kept in metabolic cage and 24 h urine protein excretion was measured.

LPS treated mice = assay: LPS-induced nephritis in C57 mice; format: in vivo; settings: serum 24 h after LPS, oral, formula (Ia) 15 mg/kg, Iptacopan 20 mg/kg twice a day; for Serum creatinine (reduction): reduction against LPS treated mice; for Serum urea (reduction): reduction compared with LPS treated mice
Protocol: Single dose of lipopolysachharide (LPS)-induced acute nephritis was generated in C57 mice and the effect of compound of formula (Ia) and combination as shown below. Male C57 mice were treated with vehicle/compound of formula (Ia) (15 mg/kg) and combination of compound of formula (Ia) (15 mg/kg) and Iptacopan (20 mg/kg, twice a day) by oral route. These mice were bled after 24 h of LPS treatment and serum was obtained. The creatinine and urea levels were measured in the serum.

5/6 nephrectomized rat = assay: 5/6 nephrectomy induced renal dysfunction in male SD rats; format: in vivo; settings: 5/6 nephrectomized SD rats, 15 mg/kg for four weeks
Protocol: Male SD rats will be operated for 5/6 nephrectomy to induce the focal segmental glomerulosclerosis. After a week of recovery, animals were treated with compound of formula (Ia). The randomized rats were treated with compound of formula (Ia) (15 mg/kg) for four weeks. At the end of treatment serum creatinine, serum urea and urine microalbumin was measured.

doxorubicin treated mice = assay: Doxorubicin-induced glomerulosclerosis in male Balb/c mice; format: in vivo; settings: reduction against doxorubicin treated animals, 24 h urine, oral, two weeks, formula (Ia) 15 mg/kg, Fimasartan 15 mg/kg
Protocol: Male Balb/c mice were treated with doxorubicin (10 mg/kg, IV). After 5 weeks of treatment, mice were randomized based on protein excretion urine into four groups: Doxorubicin, compound of formula (Ia) (15 mg/kg) and combination of compound of formula (Ia) (15 mg/kg) and Fimasartan (15 mg/kg) by oral route. The treatment continued for two weeks. These mice kept in metabolic cage and 24 h urine protein excretion was measured.

ischemia condition = settings: reference 12, cited from earlier work
[1] = listed as Compound of formula (Ia)
[2] = listed as compound of formula (Ia)

O=C(O)CNC(=O)c1c(O)c2ccccc2n(OCC2CC2)c1=O [Formula (Ia), Desidustat]
HIF stabilisation (HIF): stabilizes HIF
erythropoiesis (HIF): induces erythropoiesis
Serum creatinine (reduction) (db/db mice): 28.4 ± 4.4%
Serum urea (reduction) (db/db mice): 25.8 ± 4.8%
Serum creatinine (reduction) (db/db mice; [1]): 28.4±4.4%
Serum urea (reduction) (db/db mice; [1]): 25.8±4.8%
Urine microalbumin (reduction) (db/db mice): 50.2 ± 3.2%
Urine microalbumin (reduction) (db/db mice; [1]): 50.2±3.2%
hemoglobin (hemoglobin): improves hemoglobin
Urine total protein (reduction) (BSA treated mice): 40.1 ± 7.6%
Urine total protein (reduction) (BSA treated mice; [1]): 40.1±7.6%
Serum creatinine (reduction) (LPS treated mice): 34.1 ± 5.2%
Serum creatinine (reduction) (LPS treated mice; [2]): 34.1±5.2%
Serum urea (reduction) (LPS treated mice): 44.9 ± 5.2%
Serum urea (reduction) (LPS treated mice; [2]): 44.9 ± 5.2%
Microalbumin (reduction of urinary excretion) (5/6 nephrectomized rat): 35.9 ± 12.0%
Serum creatinine (reduction) (5/6 nephrectomized rat): 14.9 ± 3.2%
Serum urea (reduction) (5/6 nephrectomized rat): 15.9 ± 8.8%
Microalbumin (reduction of urinary excretion) (5/6 nephrectomized rat; [1]): 35.9±12.0%
Serum creatinine (reduction) (5/6 nephrectomized rat; [1]): 14.9±3.2%
Serum urea (reduction) (5/6 nephrectomized rat; [1]): 15.9±8.8%
Urine total protein (reduction) (doxorubicin treated mice): 47.8 ± 5.8%
Urine total protein (reduction) (doxorubicin treated mice; [2]): 47.8±5.8%
IL-1β levels (ischemia condition; ischemia condition): reduced
IL-6 levels (ischemia condition; ischemia condition): reduced
MDA (ischemia condition; oxidative stress): decreases
SOD (ischemia condition; oxidative stress): decreases
